Laboratory results reported in patent EP2990408B1, “NOVEL WHITENING AGENT” (Nichirei Biosciences Inc., priority 2013, dated 2014).
Like-named read-outs stand apart in the source and are kept apart here.

Experiments:
[1] = Stability test in aqueous citrate buffer solution (reversed-phase HPLC quantification); type: physicochemical; settings: for percentages of compounds remaining in the test solutions after storage: 3 weeks, 20 mM citrate buffer solution (pH 6.0), 0.1% (weight/volume)
Procedure: 3H2P phosphate monoester (1) (not according to the invention) and 3H2P phosphate bisester (2) (according to the invention) in the form of free acid were dissolved in a 20 mM citrate buffer solution (pH 6.0) to a concentration of 0.1% (weight/volume). The test solutions were stored at 4°C, 25°C, or 40°C for 3 weeks. 3H2P phosphate monoester (1) or 3H2P phosphate bisester (2) contained in the stored test solutions were quantitatively analyzed via reversed-phase HPLC (Inertsil® ODS-3, 5 µm, 4.6 × 250 mm, GL Sciences). For comparative example, the similar test was carried out in the manner described above with the use of 3H2P. […]

[2] = tested on: Mouse-derived B16 melanoma cells 4A5; experiment: Test for melanin production inhibition; type: cell-based; settings: for melanin amount relative to the melanin amount of the control group: concentration of 5 µg/ml, control group = 100, day 6 of culture; for melanin production inhibitory activity: concentrations of 1, 5, and 10 µg/ml, compared with 3H2P and arbutin, Fig. 1; for melanin production inhibitory activity, free acid compared with triethylamine salt: free acid (Fig. 1A) vs triethylamine salt (Fig. 1B)
Procedure: Mouse-derived B16 melanoma cells 4A5 (RIKEN) were seeded on a 6-well plate with the use of DMEM medium containing 10% FBS to a cell density of 5.0 × 10^4 cells/well (day 0 of culture), and culture was conducted at 37°C in the presence of 5% CO2 for 24 hours. On the following day, the cell-seeded medium was exchanged with a medium supplemented with the test compound at a given concentration (day 1 of culture). The medium was exchanged with a fresh medium every other day from day 2 and thereafter. The cells were recovered via treatment with trypsin on day 6 of culture, and melanin was extracted using an aqueous solution of 1 N sodium hydroxide. The absorbance of the melanin extract was measured at 405 nm, and the melanin amount was determined using a calibration curve prepared with the use of a melanin standard sample. In addition, the protein amount of the cells recovered in the manner described below was determined using the DC Protein Assay Kit (BIO-RAD) and employed as the cell count index. […] In the figure, the melanin amount and the cell count of test groups to which the test compounds had been added are represented relative to the measured melanin amount and cell count of the control group to which no test compound had been added (concentration: 0), which is designated as 100.

[3] = tested on: tyrosinase; experiment: Test of tyrosinase activity inhibition (L-DOPA substrate, absorbance at 475 nm); type: biochemical; settings: Fig. 2; for tyrosinase inhibitory activity compared with 3H2P: at the same concentration as 3H2P; for tyrosinase inhibitory activity: free acid, concentration of 0.1 to 0.5 mg/ml
Procedure: A solution of 6 mM L-DOPA, an aqueous solution of the test compound adjusted to a given concentration, and a phosphate buffer (pH 6.8) were mixed at a ratio of 2:2:1 by volume. The resulting substrate mixture (1.0 ml) was mixed with 0.2 ml of a solution of 0.017 mg/ml tyrosinase (Sigma), and the enzyme reaction was initiated at 37°C. The absorbance of the enzyme reaction solution was measured at 475 nm 0 and 3 minutes after the initiation of the reaction. The test group subjected to the enzyme reaction in the same manner described above, except that the test compound was not included, was designate as the blank test group. On the basis of the measured absorbance, the inhibition rate of tyrosinase activity was determined using the formula shown below. […] Inhibition rate of tyrosinase activity (%) = (1−(The difference in the absorbance of the test compound in the enzyme reaction solution between 0 minutes and 3 minutes after the initiation of the reaction)/(The difference in the absorbance of the blank in the enzyme reaction solution between 0 min and 3 min)) × 100 [formula]

O=c1occcc1OP(=O)(O)Oc1cccoc1=O [3H2P phosphate bisester (2), 3-hydroxy-2-pyrone phosphate bisester]
percentages of compounds remaining in the test solutions after storage ([1]; 4°C): 100%
percentages of compounds remaining in the test solutions after storage ([1]; 25°C): 100%
percentages of compounds remaining in the test solutions after storage ([1]; 40°C): 99.3%
stability in weak-acidic to neutral water, compared with non-phosphorylated 3H2P ([1]; summary in words of Table 1): remarkably improved stability
melanin amount relative to the melanin amount of the control group [2]: approximately 50%
melanin production inhibitory activity [2]: slightly lower than that of 3H2P but equivalent to that of arbutin
melanin production inhibitory activity, free acid compared with triethylamine salt [2]: approximately equivalent melanin production inhibitory activity
tyrosinase inhibitory activity compared with 3H2P [3]: lower than the tyrosinase inhibitory activity of 3H2P
tyrosinase inhibitory activity [3]: low tyrosinase inhibitory activity

O=c1occcc1OP(=O)(O)O [3H2P phosphate monoester (1), 3-hydroxy-2-pyrone phosphate monoester]
stability in weak-acidic to neutral water, compared with non-phosphorylated 3H2P [1]: remarkably improved stability
melanin amount relative to the melanin amount of the control group [2]: approximately 50%
melanin production inhibitory activity [2]: slightly lower than that of 3H2P but equivalent to that of arbutin
melanin production inhibitory activity, free acid compared with triethylamine salt [2]: approximately equivalent melanin production inhibitory activity
tyrosinase inhibitory activity compared with 3H2P [3]: lower than the tyrosinase inhibitory activity of 3H2P
tyrosinase inhibitory activity [3]: low tyrosinase inhibitory activity

O=c1occcc1O [Compound 3H2P, 3-hydroxy-2-pyrone, reference compound]
percentages of compounds remaining in the test solutions after storage ([1]; 4°C): 98.4%
percentages of compounds remaining in the test solutions after storage ([1]; 25°C): 87.3%
percentages of compounds remaining in the test solutions after storage ([1]; 40°C): 53.2%
